Results: patent US20260191861A1, “INFLAMMASOME AND VEGF INHIBITION FOR RETINAL VASCULAR DISEASES” (University of Virginia Patent Foundation, priority 2022, published 2026)

How the values were obtained:
[1] = tested on: participants with diabetic macular edema; assay: Visual acuity (VALS) compared with synthetic controls from the DRCR.net Protocol T study (IPTW, propensity score matching, GEE); assay type: in vivo, human; conditions: for Model-based contrast: change in visual acuity, Lamivudine vs. Aflibercept / Model-based contrast: change in visual acuity, Lamivudine vs. Bevacizumab / Model-based contrast: change in visual acuity, Lamivudine vs. Ranibizumab: IPTW model; for Mixed-effect model: change in visual acuity from baseline, Lamivudine vs Placebo / Mixed-effect model: change in visual acuity from baseline, Lamivudine vs. Aflibercept / Mixed-effect model: change in visual acuity from baseline, Lamivudine vs. Bevacizumab / Mixed-effect model: change in visual acuity from baseline, Lamivudine vs. Ranibizumab: propensity score matching
Excerpt: The second analysis included participants from the lamivudine versus placebo trial, along with a synthetic comparator created using data from the DRCR.net Protocol T study. The source of the data is DRCR.net (2018) A Comparative Effectiveness Study of Intravitreal Aflibercept, Bevacizumab and Ranibizumab for Diabetic Macular Edema, retrieved from https://public.jaeb.org/drcrnet/stdy/download/206. The analyses, content, and conclusions presented herein are solely the responsibility of the authors and have not been reviewed or approved by DRCR.net.
Inclusion criteria for participants from the DRCR.net Protocol T study were based on their similarity to the lamivudine versus placebo trial design. This involved selecting only patients with type 2 diabetes, study eyes with a baseline VALS<69, and complete follow-up visual acuity measurements at weeks 4 and 8.
(§1) Propensity score methods were used to select DRCR.net Protocol T study participants similar to lamivudine-treated patients. Inverse probability treatment weights (IPTW) and propensity score matching were used. To estimate the IPTW weights, a multinomial logistic regression was used to estimate propensity scores using important predictors including baseline visual acuity and baseline central subfield thickness along with age, gender, and duration of diabetes. Weights were calculated as the reciprocal of the estimated propensity score of the actual treatment received. Weights were then truncated at the 99th percentile. For the propensity score matched analysis, lamivudine-treated patients were matched to each DRCR.net Protocol T treatment arm (aflibercept, bevacizumab, ranibizumab) and placebo group, separately. Due to the limited sample size for matching within each group, propensity score models included the most important predictors of acuity change including baseline visual acuity, age and duration of diabetes.
(§2) For the IPTW analysis, a mixed-effects weighted model was fit with subject-specific random effects. […] The model's estimates, confidence intervals (CI), and P values were reported for each predictor. Additionally, model-based contrasts were conducted to compare the change in VALS from baseline between lamivudine and the Protocol T treatments.
For each propensity score matched group (e.g., lamivudine-bevacizumab, lamivudine-aflibercept), a mixed effect model was fit estimating the change in visual acuity from baseline. Subject specific random effect was included along with fixed effect predictors: treatment group, baseline VALS, central subfield thickness, eye (left vs right), age, sex, race and type 2 diabetes duration.
(§3) Secondary outcomes included the change in central subfield thickness, the percentage of eyes with an improvement in VALS of 15 or more, the correlation between improvements in visual acuity and central subfield thickness, and systemic and ocular adverse events. Change in central subfield thickness was estimated using mixed-effects models, similar to the VALS analysis. To analyze a VALS improvement of at least 15 letters, logistic regression using generalized estimating equations (GEEs) was specified with an exchangeable correlation matrix. Model-based contrasts were estimated to make pairwise treatment comparisons.

[2] = tested on: participants with diabetic macular edema; assay: Retinal central subfield thickness by spectral-domain OCT, including synthetic controls from DRCR.net Protocol T; assay type: in vivo, human
Procedure: as §1, §2, §3
In all consultations, patients underwent tomography with the Spectralis device (Heidelberg) under mydriasis. The acquisition protocol was the 6×6 mm region centered on the fovea. Data analysis from SD-OCT was restricted to the central field (1 mm in diameter) Intravitreous Injection of Anti-VEGF

## Nc1ccn([C@@H]2CS[C@H](CO)O2)c(=O)n1 [Lamivudine]
[1]
  Model-based contrast: change in visual acuity, Lamivudine vs. Aflibercept: 3.73
  Model-based contrast: change in visual acuity, Lamivudine vs. Bevacizumab: 6.83
  Model-based contrast: change in visual acuity, Lamivudine vs. Ranibizumab: 5.04
  Mixed-effect model: change in visual acuity from baseline, Lamivudine vs Placebo: 10.88
  Mixed-effect model: change in visual acuity from baseline, Lamivudine vs. Aflibercept: 2.33
  Mixed-effect model: change in visual acuity from baseline, Lamivudine vs. Bevacizumab: 8.95
  Mixed-effect model: change in visual acuity from baseline, Lamivudine vs. Ranibizumab: 7.24
[1]; IPTW model with synthetic controls
  Mixed effect model: change from baseline visual acuity, treatment estimate (ref: Placebo): 12.15
[1]; IPTW model with synthetic controls, listed as lamivudine
  Mixed effect model: change from baseline visual acuity, treatment estimate (ref: Placebo): 12.2
[1]; listed as lamivudine
  Model-based contrast: change in visual acuity, Lamivudine vs. Aflibercept: 3.7
  Model-based contrast: change in visual acuity, Lamivudine vs. Bevacizumab: 6.8
  Model-based contrast: change in visual acuity, Lamivudine vs. Ranibizumab: 5.0
  Mixed-effect model: change in visual acuity from baseline, Lamivudine vs Placebo: 10.9
  Mixed-effect model: change in visual acuity from baseline, Lamivudine vs. Aflibercept: 2.3
  Mixed-effect model: change in visual acuity from baseline, Lamivudine vs. Bevacizumab: 9
  Mixed-effect model: change in visual acuity from baseline, Lamivudine vs. Ranibizumab: 7.3
[1]; Original (unweighted) model with synthetic controls
  Mixed effect model: change from baseline visual acuity, treatment estimate (ref: Placebo): 11.19
[2]; IPTW model, interaction term
  IPTW mixed-effect model: change in central subfield thickness, Treatment × week [8] estimate: 41.98 μm
[2]; IPTW model, main effect (week 4)
  IPTW mixed-effect model: change in central subfield thickness from baseline, treatment estimate (ref = Placebo): −48.84 μm
[2]; week 4
  IPTW contrast: change in central subfield thickness, Lamivudine vs Bevacizumab: 17.5 μm
  IPTW contrast: change in central subfield thickness, Lamivudine vs Placebo: −48.84 μm
  IPTW contrast: change in central subfield thickness, Lamivudine vs. Aflibercept: 55.49 μm
  IPTW contrast: change in central subfield thickness, Lamivudine vs. Ranibizumab: 64.83 μm
  Propensity score matched contrast: change in central subfield thickness, Lamivudine vs. Aflibercept: 92.6 μm
  Propensity score matched contrast: change in central subfield thickness, Lamivudine vs. Bevacizumab: 12.6 μm
  Propensity score matched contrast: change in central subfield thickness, Lamivudine vs. Placebo: −47.7 μm
  Propensity score matched contrast: change in central subfield thickness, Lamivudine vs. Ranibizumab: 115.7 μm
[2]; week 4, listed as lamivudine
  IPTW contrast: change in central subfield thickness, Lamivudine vs. Aflibercept: 55 μm
  IPTW contrast: change in central subfield thickness, Lamivudine vs. Ranibizumab: 65 μm
  Propensity score matched contrast: change in central subfield thickness, Lamivudine vs. Aflibercept: 93 μm
  Propensity score matched contrast: change in central subfield thickness, Lamivudine vs. Ranibizumab: 116 μm
[2]; week 8
  IPTW contrast: change in central subfield thickness, Lamivudine vs Bevacizumab: −15.34 μm
  IPTW contrast: change in central subfield thickness, Lamivudine vs Placebo: −6.86 μm
  IPTW contrast: change in central subfield thickness, Lamivudine vs. Aflibercept: 28.93 μm
  IPTW contrast: change in central subfield thickness, Lamivudine vs. Ranibizumab: 31.81 μm
  Propensity score matched contrast: change in central subfield thickness, Lamivudine vs. Aflibercept: 21.2 μm
  Propensity score matched contrast: change in central subfield thickness, Lamivudine vs. Bevacizumab: −63.4 μm
  Propensity score matched contrast: change in central subfield thickness, Lamivudine vs. Placebo: −38.1 μm
  Propensity score matched contrast: change in central subfield thickness, Lamivudine vs. Ranibizumab: 37.1 μm
[2]; unweighted model, interaction term
  Mixed-effect model: change in central subfield thickness, Treatment × week [8] estimate: 3.8 μm
[2]; unweighted model, main effect (week 4)
  Mixed-effect model: change in central subfield thickness from baseline, treatment estimate (ref = Placebo): −44.91 μm
[2]; unweighted model, week 4
  Contrast: change in central subfield thickness, Lamivudine vs Bevacizumab: 30.65 μm
  Contrast: change in central subfield thickness, Lamivudine vs Placebo: −44.91 μm
  Contrast: change in central subfield thickness, Lamivudine vs. Aflibercept: 69.64 μm
  Contrast: change in central subfield thickness, Lamivudine vs. Ranibizumab: 77.22 μm
[2]; unweighted model, week 8
  Contrast: change in central subfield thickness, Lamivudine vs Bevacizumab: −50.42 μm
  Contrast: change in central subfield thickness, Lamivudine vs Placebo: −41.1 μm
  Contrast: change in central subfield thickness, Lamivudine vs. Aflibercept: −1.39 μm
  Contrast: change in central subfield thickness, Lamivudine vs. Ranibizumab: −4.66 μm
[2]; week 8, lamivudine group
  percentage of eyes with VALS improvement of 15 or more that had minimal improvement in central subfield thickness (≤50 μm): 64%
